# Where two headings read alike, the source gives them in different places. Marks after values point to notes of the source that are not given here.
# How the values were obtained:
# [1] = system: carrageenan induced paw edema in Wistar rats; conditions: for Change in volume (ml) at hour (h): mean ± S.E.M., n = 6
# Protocol: Male Wistar rats (180-250 g) were selected for the study comprising 6 animals in each group for the duration of study of 1 day. The vehicle used was (0.5% CMC in 0.1% Tween®80) and the route of administration was peroral (p.o.). […] One hour later 0.1 ml of 1% carrageenan was administered s.c. to the right hind paw of the rat. The degree of inflammation was measured by using digital plethosmometer (Cat. No. 7140, Ugo Basile, Italy) at 0 (initial), 0.5, 1, 2, 3 and 5 hours (h) post carrageenan injection and the values were recorded. For each hour, at least 2-3 values of the dipped paw were obtained and later averaged. The increase in the paw volume (ml) was calculated by subtracting the values obtained at the n^th from the 0 hour and percentage of activity was also calculated. The changes in paw edema (ml) values were expressed as mean±S.E.M. The treatment values were compared with the control values for a particular hour using One-Way Analysis of Variance followed by Dunnett's multiple comparison test. Values of p<0.05 were considered as statistically significant.
# [2] = cited from earlier work
# [3] = system: tail flick latency to radiant heat in mice; conditions: for % MPE at hour (h) / Tail flick latency(s) at hour (h): mean ± S.E.M., N = 6
# Protocol: (§1) Male Swiss mice (18-22 g) were selected for the study comprising 6 animals in each group. The dose volume was 0.1 ml/10 g body weight of mice and the route of administration was per oral (p.o.). Two tests were performed for the purpose. […] One hour later, a 1% acetic acid solution (10 ml/kg, i.p.) was used to produce writhing in mice. The numbers of writhes {constriction of abdomen, turning of trunk (twist), and extension of hind limbs} due to acetic acid were expressed as painful response. The numbers of writhes per animal were counted during a 20-minute session, beginning 3 minutes after the acetic acid injection. In second test i.e. Tail flick test, the mouse tail was placed on the radiant heat produced by the tail flick apparatus and the individual animal tail flick response was noted (a trail of three was carried out). Animals having a latency to tail withdrawal from the radiant heat source (3-5 s) were selected for the study. […] 1, 2, 4, 5 hours later, the tail flick latency were noted and the change in latency and % maximum protective effect (% MPE) was calculated. A cut off time of 10 seconds was used to prevent any injury to the tail. The changes in tail flick latency and the number of writhes are expressed as mean±S.E.M. The treatment values were compared with the control values for a particular hour using One-Way Analysis of Variance followed by Dunnett's or Bonferroni's multiple comparison test. Values of p<0.05 were considered as statistically significant.
# [4] = system: 1% acetic acid induced writhing in mice; conditions: for No. of writhes: 20-minute session, mean ± S.E.M., N = 6
# Protocol: as §1
compound,measurement,setting,value
"CS(=O)(=O)Nc1ccc([N+](=O)[O-])cc1Oc1ccccc1 [Nimesulide, 4-nitro-2-phenoxymethane-sulfonanilide]",Percentage of anti-inflammatory activity at hour (h),"[1]; 1 mg/kg p.o., 0.5 h",16%
same,Change in volume (ml) at hour (h),"[1]; 1 mg/kg p.o., 0.5 h post carrageenan",0.148 ± 0.033 mL
same,Percentage of anti-inflammatory activity at hour (h),"[1]; 1 mg/kg p.o., 1 h",−8%
same,Change in volume (ml) at hour (h),"[1]; 1 mg/kg p.o., 1 h post carrageenan",0.186 ± 0.042 mL
same,Percentage of anti-inflammatory activity at hour (h),"[1]; 1 mg/kg p.o., 2 h",−7%
same,Change in volume (ml) at hour (h),"[1]; 1 mg/kg p.o., 2 h post carrageenan",0.312 ± 0.081 mL
same,Percentage of anti-inflammatory activity at hour (h),"[1]; 1 mg/kg p.o., 3 h",20%
same,Change in volume (ml) at hour (h),"[1]; 1 mg/kg p.o., 3 h post carrageenan",0.398 ± 0.092 mL
same,Percentage of anti-inflammatory activity at hour (h),"[1]; 1 mg/kg p.o., 5 h",14%
same,Change in volume (ml) at hour (h),"[1]; 1 mg/kg p.o., 5 h post carrageenan",0.549 ± 0.114 mL
same,Percentage of anti-inflammatory activity at hour (h),"[1]; 3 mg/kg p.o., 0.5 h",22%
same,Change in volume (ml) at hour (h),"[1]; 3 mg/kg p.o., 0.5 h post carrageenan",0.137 ± 0.038 mL
same,Percentage of anti-inflammatory activity at hour (h),"[1]; 3 mg/kg p.o., 1 h",27%
same,Change in volume (ml) at hour (h),"[1]; 3 mg/kg p.o., 1 h post carrageenan",0.126 ± 0.028 mL
same,Percentage of anti-inflammatory activity at hour (h),"[1]; 3 mg/kg p.o., 2 h",33%
same,Change in volume (ml) at hour (h),"[1]; 3 mg/kg p.o., 2 h post carrageenan",0.196 ± 0.056 mL
same,Percentage of anti-inflammatory activity at hour (h),"[1]; 3 mg/kg p.o., 3 h",66* %
same,Change in volume (ml) at hour (h),"[1]; 3 mg/kg p.o., 3 h post carrageenan",0.168 ± 0.11 mL
same,Percentage of anti-inflammatory activity at hour (h),"[1]; 3 mg/kg p.o., 5 h",44%
same,Change in volume (ml) at hour (h),"[1]; 3 mg/kg p.o., 5 h post carrageenan",0.354 ± 0.104 mL
same,Percentage of anti-inflammatory activity at hour (h),"[1]; 10 mg/kg p.o., 0.5 h",33%
same,Change in volume (ml) at hour (h),"[1]; 10 mg/kg p.o., 0.5 h post carrageenan",0.118 ± 0.027 mL
same,Percentage of anti-inflammatory activity at hour (h),"[1]; 10 mg/kg p.o., 1 h",17%
same,Change in volume (ml) at hour (h),"[1]; 10 mg/kg p.o., 1 h post carrageenan",0.143 ± 0.016 mL
same,Percentage of anti-inflammatory activity at hour (h),"[1]; 10 mg/kg p.o., 2 h",62%
same,Change in volume (ml) at hour (h),"[1]; 10 mg/kg p.o., 2 h post carrageenan",0.110 ± 0.018 mL
same,Percentage of anti-inflammatory activity at hour (h),"[1]; 10 mg/kg p.o., 3 h",59* %
same,Change in volume (ml) at hour (h),"[1]; 10 mg/kg p.o., 3 h post carrageenan",0.203 ± 0.032 mL
same,Percentage of anti-inflammatory activity at hour (h),"[1]; 10 mg/kg p.o., 5 h",58** %
same,Change in volume (ml) at hour (h),"[1]; 10 mg/kg p.o., 5 h post carrageenan",0.264 ± 0.035 mL
same,anti-inflammatory activity over time,"[1]; 10 mg/kg, all time intervals",almost consistent anti-inflammatory activity at all time intervals
same,Percentage of anti-inflammatory activity at hour (h),"[1]; 30 mg/kg p.o., 0.5 h",28%
same,Change in volume (ml) at hour (h),"[1]; 30 mg/kg p.o., 0.5 h post carrageenan",0.126 ± 0.027 mL
same,Percentage of anti-inflammatory activity at hour (h),"[1]; 30 mg/kg p.o., 1 h",−12%
same,Change in volume (ml) at hour (h),"[1]; 30 mg/kg p.o., 1 h post carrageenan",0.193 ± 0.024 mL
same,Percentage of anti-inflammatory activity at hour (h),"[1]; 30 mg/kg p.o., 2 h",27%
same,Change in volume (ml) at hour (h),"[1]; 30 mg/kg p.o., 2 h post carrageenan",0.214 ± 0.028 mL
same,Percentage of anti-inflammatory activity at hour (h),"[1]; 30 mg/kg p.o., 3 h",38%
same,Change in volume (ml) at hour (h),"[1]; 30 mg/kg p.o., 3 h post carrageenan",0.307 ± 0.020 mL
same,Percentage of anti-inflammatory activity at hour (h),"[1]; 30 mg/kg p.o., 5 h",30%
same,Change in volume (ml) at hour (h),"[1]; 30 mg/kg p.o., 5 h post carrageenan",0.443 ± 0.035 mL
same,degree of anti-inflammatory activity,"[1]; 30 mg/kg p.o., from 2-5 hour",around 30%
same,reduction in paw volume (dose dependence),"[1]; 1, 3 and 10 mg/kg, p.o., from 2 to 5 hour",dose dependant reduction in paw volume
same,reduction in paw volume compared to control (significance),"[1]; 3 and 10 mg/kg at 3 hours and 10 mg/kg at 5 hours, p<0.05",statistically significant reduction in paw volume
same,"Time to reach peak concentration (tmax), mean",[2]; after 100 mg,2.50 h
same,"Time to reach peak concentration (tmax), mean",[2]; after 200 mg dose,3.17 h
same,% MPE at hour (h),"[3]; 0.1 mg/kg p.o., 1 h",137.0 ± 37.1 %
same,Tail flick latency(s) at hour (h),"[3]; 0.1 mg/kg p.o., 1 h",3.00 ± 0.58 s
same,% MPE at hour (h),"[3]; 0.1 mg/kg p.o., 2 h",251.0 ± 59.9 %
same,Tail flick latency(s) at hour (h),"[3]; 0.1 mg/kg p.o., 2 h",5.50 ± 0.18 s
same,% MPE at hour (h),"[3]; 0.1 mg/kg p.o., 3 h",279.0 ± 49.4 %
same,Tail flick latency(s) at hour (h),"[3]; 0.1 mg/kg p.o., 3 h",6.17 ± 0.33 s
same,% MPE at hour (h),"[3]; 0.1 mg/kg p.o., 5 h",28.0 ± 6.1 %
same,Tail flick latency(s) at hour (h),"[3]; 0.1 mg/kg p.o., 5 h",1.42 ± 0.35 s
same,% MPE at hour (h),"[3]; 0.3 mg/kg p.o., 1 h",114.0 ± 16.8 %
same,Tail flick latency(s) at hour (h),"[3]; 0.3 mg/kg p.o., 1 h",3.17 ± 0.51 s
same,% MPE at hour (h),"[3]; 0.3 mg/kg p.o., 2 h",193.0 ± 9.5 %
same,Tail flick latency(s) at hour (h),"[3]; 0.3 mg/kg p.o., 2 h",5.33 ± 0.38 s
same,% MPE at hour (h),"[3]; 0.3 mg/kg p.o., 3 h",209.0 ± 4.3 %
same,Tail flick latency(s) at hour (h),"[3]; 0.3 mg/kg p.o., 3 h",5.75 ± 0.21 s
same,% MPE at hour (h),"[3]; 0.3 mg/kg p.o., 5 h",54.0 ± 6.6 %
same,Tail flick latency(s) at hour (h),"[3]; 0.3 mg/kg p.o., 5 h",3.08 ± 0.27 s
same,% MPE at hour (h),"[3]; 1.0 mg/kg p.o., 1 h",112.0 ± 22.5 %
same,Tail flick latency(s) at hour (h),"[3]; 1.0 mg/kg p.o., 1 h",3.17 ± 0.67 s
same,% MPE at hour (h),"[3]; 1.0 mg/kg p.o., 2 h",187.0 ± 11.9 %
same,Tail flick latency(s) at hour (h),"[3]; 1.0 mg/kg p.o., 2 h",5.25 ± 0.25 s
same,% MPE at hour (h),"[3]; 1.0 mg/kg p.o., 3 h",187.0 ± 12.0 %
same,Tail flick latency(s) at hour (h),"[3]; 1.0 mg/kg p.o., 3 h",5.25 ± 0.28 s
same,% MPE at hour (h),"[3]; 1.0 mg/kg p.o., 5 h",38.0 ± 6.1 %
same,Tail flick latency(s) at hour (h),"[3]; 1.0 mg/kg p.o., 5 h",2.17 ± 0.28 s
same,% MPE at hour (h),"[3]; 3.0 mg/kg p.o., 1 h",205.0 ± 32.9 %
same,Tail flick latency(s) at hour (h),"[3]; 3.0 mg/kg p.o., 1 h",5.17 ± 0.73 s
same,% MPE at hour (h),"[3]; 3.0 mg/kg p.o., 2 h",250.0 ± 21.9 %
same,Tail flick latency(s) at hour (h),"[3]; 3.0 mg/kg p.o., 2 h",6.33 ± 0.33 s
same,% MPE at hour (h),"[3]; 3.0 mg/kg p.o., 3 h",248.0 ± 20.4 %
same,Tail flick latency(s) at hour (h),"[3]; 3.0 mg/kg p.o., 3 h",6.25 ± 0.21 s
same,% MPE at hour (h),"[3]; 3.0 mg/kg p.o., 5 h",70.0 ± 9.5 %
same,Tail flick latency(s) at hour (h),"[3]; 3.0 mg/kg p.o., 5 h",5.33 ± 0.85 s
same,tail flick latency to radiant heat (dose dependence),"[3]; 0.1, 0.3, 1 and 3 mg/kg, 1, 2, 3 and 5 hours",non dose dependant reduction in tail flick latency
same,percentage of maximum protection (significance),[3]; all time intervals and all dose levels,statistically significant at all time intervals and at all dose levels
same,% protection,[4]; 0.03 mg/kg p.o.,28%
same,No. of writhes,[4]; 0.03 mg/kg p.o.,23.17 ± 3.38
same,% protection,[4]; 0.1 mg/kg p.o.,39%
same,No. of writhes,[4]; 0.1 mg/kg p.o.,19.67 ± 2.73
same,No. of writhes,[4]; 0.3 mg/kg p.o.,15.50 ± 1.88
same,% protection,[4]; 1.0 mg/kg p.o.,75%
same,No. of writhes,[4]; 1.0 mg/kg p.o.,8.00 ± 1.15
same,reduction in number of writhes (dose dependence),"[4]; doses 0.03, 0.1, 0.3 and 1 ml/kg, 1% acetic acid",dose dependant reduction in number of writhes
same,reduction in number of writhing (significance),"[4]; doses 0.1, 0.3 and 1 mg/kg",statistically significant reduction in number of writhing
